Data: patent US11992499B2, “Quinoline derivatives for use in the treatment of inflammation diseases” (ABIVAX, priority 2018, dated 2024)
Entries after “also recorded” stand apart in the source; their conditions may differ.

Assays:
[1] = tested on: STAM model of non-alcoholic steatohepatitis; test: STAM model of NASH: HE staining and NAFLD Activity score; type: in vivo, mice; set-up: key to NAFLD Activity score (mean ± SD): NAFLD Activity score per Kleiner et al. 2005 criteria
Description: (§1) NASH was induced in 48 male mice by a single subcutaneous injection of 200 μg streptozotocin (STZ, Sigma-Aldrich, USA) solution 2 days after birth and feeding with high fat diet (HFD, 57 kcal % fat, Cat #HFD32, CLEA Japan, Inc., Japan) after 4 weeks of age. Compound A was administered at 3 dose levels of 10, 20 and 40 mg/kg once daily from 6 to 9 weeks of age. Compound B was administered at a dose of 40 mg/kg once daily from 6 to 9 weeks of age. Telmisartan was administered at a dose of 10 mg/kg once daily from 6 to 9 weeks of age. For HE staining, sections were cut from paraffin blocks of liver tissue prefixed in Bouin's solution and stained with Lillie-Mayer's Hematoxylin (Muto Pure Chemicals Co., Ltd., Japan) and eosin solution (FUJIFILM Wako Pure Chemical Corporation). NAFLD Activity score (NAS) was calculated according to the criteria of Kleiner (Kleiner D E. et al., Hepatology, 2005; 41:1313). To visualize collagen deposition, Bouin's fixed liver sections were stained using picro-Sirius red solution (Waldeck, Germany). For quantitative analysis of fibrosis area, bright field images of Sirius red-stained sections were captured around the central vein using a digital camera (DFC295; Leica, Germany) at 200-fold magnification, and the positive areas in 5 fields/section were measured using ImageJ software (National Institute of Health, USA).

[2] = tested on: STAM model of non-alcoholic steatohepatitis; test: STAM model of NASH: F4/80 immunostaining; type: in vivo, mice; settings: for F4/80-positive area (mean ± SD): n = 8
Description: NASH was induced in 48 male mice by a single subcutaneous injection of 200 μg streptozotocin (STZ, Sigma-Aldrich, USA) solution 2 days after birth and feeding with high fat diet (HFD, 57 kcal % fat, Cat #HFD32, CLEA Japan, Inc., Japan) after 4 weeks of age.
Compound A was administered at 3 dose levels of 10, 20 and 40 mg/kg once daily from 6 to 9 weeks of age. Compound B was administered at a dose of 40 mg/kg once daily from 6 to 9 weeks of age. Telmisartan was administered at a dose of 10 mg/kg once daily from 6 to 9 weeks of age.

[3] = tested on: monocrotaline model of pulmonary arterial hypertension; test: Rat monocrotaline model of pulmonary arterial hypertension: mean pulmonary pressure; type: in vivo; settings: for Effect on pulmonary pressure: pulmonary hypertension induced by monocrotaline; for Mean Pulmonary Pressure: MCT
Description: • 1. The experimental trace to be analyzed is opened in Clampfit. • 2. Right atria pressure is recorded for 1 minute • 3. PAP recorded continuously for at least 1 minute or until loss of signal, is used to extract the mean, diastolic, and systolic pulmonary pressure. • 4. The systemic arterial pressure (SAP) recorded continuously is used to extract the mean, diastolic and systolic arterial pressure. • 5. At the end of the hemodynamic parameters recording, the right and left ventricle including the septum and the lung lobes is excised to determine wet weights. • 6. Each parameter is compiled for each group and presented in bar graphs with appropriate statistical analysis.
The appropriate amount of monocrotaline is weighed and ⅓ of the correct volume of 1.0N HCl is added and mixed to ensure monocrotaline solubilisation. The solution is then neutralized with ⅓ of the correct volume of 1.0 N NaOH. The pH of the solution is checked with a pH indicator paper/strip or an electronic pH meter and adjusted to neutral as necessary; the final volume is completed with water for injection to obtain a solution of 20 mg/mL. The monocrotaline solution is injected subcutaneously, over the shoulders, into the loose skin over the neck, to each rat at 3 mL/kg of body weight (dose is 60 mg/kg).
Compound A was administered as a suspension in the vehicle. To reach the required concentrations, compound A was grounded to a fine powder, using a mortar and pestle, and then mixed with 20% (final volume) of vehicle A1 until a suspension was achieved. 80% of vehicle A2 was then added to the suspension under magnetic stirring.
The appropriate amount of Sildenafil is weighed and appropriate volume of distillated water is added to obtain suspension at 5 mg/mL. The suspension is mixed with a stir bar for 30-60 minutes until a homogenous suspension is achieved. Care is taken to maintain a uniform suspension (stirring continuously) whilst doses are being drawn up into gavage syringes. One gavage syringe is filled at a time and administered before filling the next syringe. The solutions are stored refrigerated at 2 to 8° C. and protected from light. The expiration date is set at 7 days after preparation.
Animals from Groups 2 to 5 (see Table 13) receive a single subcutaneous injection of monocrotaline (60 mg/kg) solution on Day 0 and returned to their cages. Animals from Group 1 receive one subcutaneous injection vehicle for MCT on Day 0 and returned to their respective cages.
Treatment with the compound A, sildenafil or vehicle is administered as of Day 7 (Groups 2-5) as scheduled and described in Table 13. The Groups 2-4 receive a single dose per day. The reference group 5 receives sildenafil twice a day. Food and water are given ad libitum. Daily observation of the behaviour and general health status of the animals is done. Weekly body weight is taken.
Surgical Instrumentation and Measurement of Hemodynamic and Functional Parameters in Efficacy Study Animals • 1. On the selected day of surgery, rats are anaesthetized with a mixture of 2 to 2.5% isoflurane USP (Abbot Laboratories, Montreal, Canada) in oxygen, and placed on a heating pad to maintain body temperature. • 2. Rats are tracheotomized and immediately ventilated by means of a positive-pressure rodent respirator set at ≈10 ml/kg bodyweight at a frequency of 65-70 strokes/min. • 3. Lead II ECG contact electrodes is placed on the rat to continuously monitor the ECG during the surgical procedure. • 4. A cannula connected to a pressure transducer is inserted into the left femoral artery to measure the arterial blood pressure. • 5. A cannula connected to a pressure transducer is inserted into the right atria through the right jugular vein to measure the right atria pressure. • 6. The heart is exposed through a sternotomy and a 20GA 1.16 in Insyte is introduced into the right ventricle and rapidly hooked up to a saline filled PE-50 catheter connected to a transducer. • 7. […]

[4] = tested on: STAM model of non-alcoholic steatohepatitis; test: STAM model of NASH: Sirius red staining, fibrosis area; type: in vivo, mice; settings: for Sirius red-positive area (fibrosis area, mean ± SD): n = 8
Description: as §1

[5] = summary statement, dose not stated
[6] = 10 mg/kg PO QD, 6-9 wks of age (Compound A low, Telmisartan groups), n = 8
[7] = 20 mg/kg PO QD (Compound A middle group)
[8] = 20 mg/kg PO QD, 6-9 wks of age (Compound A middle group), n = 8
[9] = 40 mg/kg PO QD (Compound A high, Compound B groups)
[10] = 40 mg/kg PO QD, 6-9 wks of age (Compound A high, Compound B groups), n = 8
[11] = 10 mg/kg PO QD, 6-9 wks of age (Compound A low, Telmisartan groups)
[12] = 20 mg/kg PO QD, 6-9 wks of age (Compound A middle group)
[13] = 40 mg/kg PO QD, 6-9 wks of age (Compound A high, Compound B groups)

For `FC(F)(F)Oc1ccc(Nc2ccc3cccc(Cl)c3n2)cc1` [8-Chloro-N-(4-(trifluoromethoxy)phenyl)quinolin-2-amine], the “NAS compared with the Vehicle group” value [1, 5] was “decreasing trend”, the “F4/80-positive area in the liver” value [2, 5] was “decreased” and the “Effect on pulmonary pressure” value ([3]; female rat) was “reduces significantly”.

With `FC(F)(F)Oc1ccc(Nc2ccc3cccc(Cl)c3n2)cc1` [Compound A, 8-Chloro-N-(4-(trifluoromethoxy)phenyl)quinolin-2-amine] the “NAS compared with the Vehicle group” value ([1]; 10 mg/kg PO QD (Compound A low, Telmisartan groups)) was “tended to decrease; also recorded: decreasing trend”, the “Hepatocyte ballooning score 0 (None), number of mice” value (from here on “Hepatocyte ballooning score 0 (None)”) [1, 6] was 3 and the “Hepatocyte ballooning score 1 (Few balloon cells), number of mice” value [1, 6] was 2. For the same compound, the “Hepatocyte ballooning score 2 (Many cells/prominent ballooning), number of mice” value [1, 6] was 3, the “Lobular inflammation score 2 (2-4 foci/200×), number of mice” value [1, 6] was 7 and the “Lobular inflammation score 3 (>4 foci/200×), number of mice” value [1, 6] was 1. The “NAFLD Activity score (mean ± SD)” value [1, 6] was 3.6 ± 1.1, the “Steatosis score 0 (<5%), number of mice” value [1, 6] was 4 and the “Steatosis score 1 (5-33%), number of mice” value (“Steatosis score 1 (5-33%)” for short) [1, 6] was 4. For the same compound, the “NAS compared with the Vehicle group” value [1, 7] was “tended to decrease; also recorded: decreasing trends”, the “Hepatocyte ballooning score 0 (None)” value [1, 8] was 3 and the “Hepatocyte ballooning score 1 (Few balloon cells), number of mice” value [1, 8] was 3. The “Hepatocyte ballooning score 2 (Many cells/prominent ballooning), number of mice” value [1, 8] was 2, the “Lobular inflammation score 2 (2-4 foci/200×), number of mice” value [1, 8] was 6 and the “Lobular inflammation score 3 (>4 foci/200×), number of mice” value [1, 8] was 2. The “NAFLD Activity score (mean ± SD)” value [1, 8] was 3.4 ± 1.2, the “Steatosis score 0 (<5%), number of mice” value [1, 8] was 6 and the “Steatosis score 1 (5-33%)” value [1, 8] was 2. For the same compound, the “NAS compared with the Vehicle group” value [1, 9] was “tended to decrease; also recorded: decreasing trend”, the “Hepatocyte ballooning score 0 (None)” value [1, 10] was 5 and the “Hepatocyte ballooning score 1 (Few balloon cells), number of mice” value [1, 10] was 2. The “Hepatocyte ballooning score 2 (Many cells/prominent ballooning), number of mice” value [1, 10] was 1, the “Lobular inflammation score 1 (<2 foci/200×), number of mice” value [1, 10] was 1 and the “Lobular inflammation score 2 (2-4 foci/200×), number of mice” value [1, 10] was 2. The “Lobular inflammation score 3 (>4 foci/200×), number of mice” value [1, 10] was 5, the “NAFLD Activity score (mean ± SD)” value [1, 10] was 3.4 ± 1.3 and the “Steatosis score 0 (<5%), number of mice” value [1, 10] was 5. The “Steatosis score 1 (5-33%)” value [1, 10] was 3, the “Overall effect in this NASH model” value ([1]; conclusion of the study) was “potential anti-NAS and anti-fibrosis effects” and the “NAS compared with the Vehicle group” value [1, 5] was “decreasing trends”. For the same compound, the “Sirius red-positive area (fibrosis area, mean ± SD)” value [4, 11] was 0.70 ± 0.11%, the “Fibrosis area (Sirius red-positive area) compared with the Vehicle group” value [4, 7] was “tended to decrease; also recorded: decreasing trends” and the “Sirius red-positive area (fibrosis area, mean ± SD)” value [4, 12] was 0.65 ± 0.13%. The “Sirius red-positive area (fibrosis area, mean ± SD)” value [4, 13] was 0.68 ± 0.14%, the “Pathological deposition of collagen in the liver (Sirius red staining)” value [4, 5] was “decreasing trend” and the “F4/80-positive area (mean ± SD)” value [2, 11] was 2.22 ± 0.46%. For the same compound, the “F4/80-positive area compared with the Vehicle group” value [2, 7] was “tended to decrease”, the “F4/80-positive area (mean ± SD)” value [2, 12] was 1.88 ± 0.62% and the “F4/80-positive area compared with the Vehicle group” value [2, 9] was “significant decrease”. For the same compound, the “F4/80-positive area (mean ± SD)” value [2, 13] was 1.53 ± 0.77%, the “Mean Pulmonary Pressure” value ([3]; female rat, 70 mg/kg QD gavage Day 7 to Day 28, n = 7) was 22.2 mmHg and the “Mean Pulmonary Pressure” value ([3]; female rat, 120 mg/kg QD gavage Day 7 to Day 28, n = 11) was 16.9 mmHg. The “Effect on pulmonary pressure” value ([3]; female rat) was “reduces significantly” and the “Effect on pulmonary pressure” value ([3]; male rat) was “no effect”.
